The results in this text go back to patent US11285156B2, “Substituted piperazines as KRAS G12C inhibitors” (Amgen Inc., priority 2018, dated 2022).

One may read the IC50 as the concentration at which inhibition is half-maximal.

The subject of assay [1] is Phosphorylation of ERK1/2 in A549 cells. As to the kind of experiment: Phospho-ERK1/2 MSD assay in A549 cells. The format is cell-based. The following applies: read-out: p-ERK IC50 (2 h, A549; μM), 2 h compound treatment, A549 cells, EGF stimulated. The gist of the method: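 Readout: MSD phospho-ERK1/2 signal after compound (2 or 4 h) and 10 min EGF stimulation at 10 ng/mL.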

Assay [2] concerns the target GDP-bound KRAS protein (aa 1-169), containing both G12C and C118A amino acid substitutions (Homo sapiens (Human), UniProt P01116, C118A/G12C). The experiment in a line: Coupled nucleotide exchange assay (SOS-mediated nucleotide exchange, AlphaScreen). In kind it is biochemical. Particulars: 5 min compound pre-incubation; for IC50: read-out: Coupled exchange IC50 (5 min; μM). (In general: Alpha assays give light when donor and acceptor beads are brought close together.)

The subject of assay [3] is Phosphorylation of ERK1/2 in MIA PaCa-2 cells. As to the kind of experiment: Phospho-ERK1/2 MSD assay in MIA PaCa-2 cells. The format is cell-based. Particulars: read-out: p-ERK IC50 (2 h, MiaPaCa-2; μM), 2 h compound treatment, MIA PaCa-2 cells, EGF stimulated. The essentials:
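Phospho-ERK1/2 measured by MSD electrochemiluminescence kit in RIPA lysates of MIA PaCa-2 cells. Cells were treated with compound titrations for 2 or 4 h at 37 °C, 5% CO2, followed by a 10 min pulse of 10 ng/mL EGF.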

SMILES strings stand for the structures. Read-outs that look alike come from different tables or passages of the source. Where only a bound is given, the exact number is not on record here.

GDP-bound KRAS protein (aa 1-169), containing both G12C and C118A amino acid substitutions, sequence (P01116 other isoform, or with tags, fused parts or gaps G12C/C118A): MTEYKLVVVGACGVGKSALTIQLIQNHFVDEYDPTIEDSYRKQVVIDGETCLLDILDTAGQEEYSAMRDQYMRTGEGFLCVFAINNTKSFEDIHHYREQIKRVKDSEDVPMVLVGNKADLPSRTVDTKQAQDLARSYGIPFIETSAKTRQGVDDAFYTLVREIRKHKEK

For `C=CC(=O)N1C[C@H](C)N(c2nc(=O)n(-c3c(C)ccnc3C(C)C)c3nc(-c4cccc(F)c4N)c(Cl)cc23)C[C@H]1C` (atropisomer, axis not shown; (M)) [Example 92-17, (M)-7-(2-Amino-3-fluoro-phenyl)-6-chloro-4-[(2S,5R)-2,5-dimethyl-4-prop-2-enoyl-piperazin-1-yl]-1-(2-isopropyl-4-methyl-3-pyridyl)pyrido[2,3-d]pyrimidin-2-one], the IC50 in assay [1] (Homo sapiens, A549, 2 h) was > 7.5 µM; in assay [2], 0.042 µM; in assay [3] (Homo sapiens, MIA PaCa-2, 2 h), 0.018 µM.
Take `C=CC(=O)N1C[C@H](C)N(c2nc(=O)n(-c3c(C)ccnc3C(C)C)c3nc(-c4ccccc4NS(C)(=O)=O)c(Cl)cc23)C[C@H]1C` (atropisomer, axis not shown; (M)) [Example 92-32, (M)-N-[2-[6-Chloro-4-[(2S,5R)-2,5-dimethyl-4-prop-2-enoyl-piperazin-1-yl]-1-(2-isopropyl-4-methyl-3-pyridyl)-2-oxo-pyrido[2,3-d]pyrimidin-7-yl]phenyl] methanesul-fonamide]: the IC50 in assay [1] (Homo sapiens, A549, 2 h) was > 7.5 µM; in assay [2], 0.075 µM; in assay [3] (Homo sapiens, MIA PaCa-2, 2 h), 0.129 µM.
For `C=CC(=O)N1C[C@H](C)N(c2nc(=O)n(-c3c(C(C)C)ncnc3C(C)C)c3nc(-c4cc(O)ccc4C)c(Cl)cc23)C[C@H]1C` [Example 174, 6-Chloro-1-(4,6-diisopropylpyrimidin-5-yl)-4-[(2S,5R)-2,5-dimethyl-4-prop-2-enoyl-piperazin-1-yl]-7-(5-hydroxy-2-methyl-phenyl)pyrido[2,3-d]pyrimidin-2-one], the IC50 in assay [1] (Homo sapiens, A549, 2 h) is > 7.5 µM; in assay [3] (Homo sapiens, MIA PaCa-2, 2 h), 0.082 µM. Moreover, in assay [2], the “Coupled exchange IC50 (5 min; μM)” value was 0.069 µM.
As to `C=CC(=O)N1C[C@H](C)N(c2nc(=O)n(-c3c(C)cc(CN(C)C)cc3C(C)C)c3nc(-c4ccccc4F)c(F)cc23)C[C@H]1C` (single isomer, unassigned) [Example 80-20-2], the values for the IC50 in assay [1], in assay [2] and in assay [3] were > 7.5 µM, 0.368 µM and 0.295 µM, respectively.
On to `C=CC(=O)N1CCN(c2nc(=O)n(-c3c(C)ccnc3C(C)C)c3nc(-c4ccccc4F)c(Cl)cc23)[C@H]2C[C@H]21` (atropisomer, axis not shown; (M)) [Example 222-2, (M)-4-((1S,6R)-5-acryloyl-2,5-diazabicyclo[4.1.0]heptan-2-yl)-6-chloro-7-(2-fluorophenyl)-1-(2-isopropyl-4-methylpyridin-3-yl)pyrido[2,3-d]pyrimidin-2(1H)-one], for which the IC50 in assay [1] was determined as 2.52 µM; in assay [2] it was 0.014 µM; in assay [3], 0.048 µM.
Take `C=CC(=O)N1C[C@H](C)N(c2nc(=O)n3c4nc(c(Cl)cc24)-c2ccccc2C/C=C\Cc2ccccc2-3)C[C@H]1C` (atropisomer, axis not shown; (P)) [Example 146-3]: the IC50 in assay [1] (Homo sapiens, A549, 2 h) was > 7.5 µM; in assay [2] it was 7.03 µM; in assay [3] it was 4.26 µM.
As to `C=CC(=O)N1C[C@H](C)N(c2nc(=O)n(-c3c(C)cc(CN(C)C)cc3C(C)C)c3nc(-c4c(O)cccc4F)c(F)cc23)C[C@H]1C` (single isomer, unassigned) [Example 80-21-2], the IC50 was > 7.5 µM in assay [1], 0.061 µM in assay [2] and 0.072 µM in assay [3].
Regarding `C=CC(=O)N1C[C@H](C)N(c2nc(=O)n(-c3c(C)ccnc3C(C)C)c3nc(-c4ccccc4C(N)=O)c(Cl)cc23)C[C@H]1C` (atropisomer, axis not shown; (M)) [Example 92-21, (M)-2-[6-Chloro-4-[(2S,5R)-2,5-dimethyl-4-prop-2-enoyl-piperazin-1-yl]-1-(2-isopropyl-4-methyl-3-pyridyl)-2-oxo-pyrido[2,3-d]pyrimidin-7-yl]benzamide], the IC50 in assay [1] (Homo sapiens, A549, 2 h) is > 7.5 µM; in assay [2], 0.051 µM; in assay [3] (Homo sapiens, MIA PaCa-2, 2 h), 0.637 µM.
Take `C=CC(=O)N1C[C@@H](C)N(c2nc(=O)n(-c3c(C(C)C)ncnc3C(C)C)c3nc(-c4ccccc4F)c(F)cc23)[C@@H](C)C1` [Example 101-3, 1-(4,6-Diisopropylpyrimidin-5-yl)-4-[(2R,6S)-2,6-dimethyl-4-prop-2-enoyl-piperazin-1-yl]-6-fluoro-7-(2-fluorophenyl)pyrido [2,3-d]pyrimidin-2-one]: the IC50 is > 7.5 µM in assay [1] (Homo sapiens, A549, 2 h); 0.195 µM in assay [2]; 0.208 µM in assay [3] (Homo sapiens, MIA PaCa-2, 2 h).
As to `C=CC(=O)N1C[C@H](C)N(c2nc(=O)n(-c3c(C(C)C)cncc3C(C)C)c3nc(-c4ccccc4F)c(Cl)cc23)C[C@H]1C` [Example 103-4, 6-Chloro-1-(3,5-diisopropyl-4-pyridyl)-4-[(2S,5R)-2,5-dimethyl-4-prop-2-enoyl-piperazin-1-yl]-7-(2-fluorophenyl) pyrido[2,3-d]pyrimidin-2-one], the IC50 in assay [1] (Homo sapiens, A549, 2 h) was > 7.5 µM; in assay [2], 0.057 µM; in assay [3] (Homo sapiens, MIA PaCa-2, 2 h) it was 0.062 µM.
On to `C=CC(=O)N1C[C@H](C)N(c2nc(=O)n(-c3c(N)ncnc3C(C)C)c3nc(-c4c(N)cccc4F)c(Cl)cc23)C[C@H]1C` [Example 192, 4-((2S,5R)-4-Acryloyl-2,5-dimethylpiperazin-1-yl)-7-(2-amino-6-fluorophenyl)-1-(4-amino-6-isopropylpyrimidin-5-yl)-6-chloropyrido[2,3-d]pyrimidin-2(1H)-one], for which the IC50 was > 7.5 µM in assay [1] (Homo sapiens, A549, 2 h) and 0.161 µM in assay [3] (Homo sapiens, MIA PaCa-2, 2 h). In addition, the “Coupled exchange IC50 (5 min; μM)” value in assay [2] stood at 0.029 µM.
Regarding `C#Cc1cccc(-c2nc3c(cc2Cl)c(N2C[C@@H](C)N(C(=O)C=C)C[C@@H]2C)nc(=O)n3-c2c(C)ccnc2C(C)C)c1` (atropisomer, axis not shown; (M)) [Example 92-48, (M)-6-Chloro-4-[(2S,5R)-2,5-dimethyl-4-prop-2-enoyl-piperazin-1-yl]-7-(3-ethynylphenyl)-1-(2-isopropyl-4-methyl-3-pyridyl)pyrido [2,3-d]pyrimidin-2-one], the IC50 in assay [1] (Homo sapiens, A549, 2 h) is > 7.5 µM; in assay [2], 0.247 µM; in assay [3] (Homo sapiens, MIA PaCa-2, 2 h) it was 0.365 µM.
With `C=CC(=O)N1C[C@H](C)N(c2nc(=O)n(-c3c(C)ccnc3C(C)C)c3nc(-c4ccccc4NC(=O)C4CC4)c(Cl)cc23)C[C@H]1C` (atropisomer, axis not shown; (M)) [Example 129-6, (M)-N-[2-[6-Chloro-4-[(2S,5R)-2,5-dimethyl-4-prop-2-enoyl-piperazin-1-yl]-1-(2-isopropyl-4-methyl-3-pyridyl)-2-oxo-pyrido[2,3-d]pyrimidin-7-yl]phenyl]cyclopropanecarboxamide], the IC50 in assay [1] (Homo sapiens, A549, 2 h) was > 7.5 µM; in assay [2] it was 0.06 µM; in assay [3] (Homo sapiens, MIA PaCa-2, 2 h) it was 0.058 µM.
With `C=CC(=O)N1C[C@H](C)N(c2nc(=O)n(-c3c(C(C)C)nc(N)nc3C(C)C)c3nc(-c4ccccc4F)c(Cl)cc23)C[C@H]1C` [Example 229, 4-((2S,5R)-4-Acryloyl-2,5-dimethylpiperazin-1-yl)-1-(2-amino-4,6-diisopropylpyrimidin-5-yl)-6-chloro-7-(2-fluorophenyl)pyrido[2,3-d]pyrimidin-2(1H)-one], the IC50 was > 7.5 µM in assay [1] (Homo sapiens, A549, 2 h); 0.071 µM in assay [2]; 0.032 µM in assay [3] (Homo sapiens, MIA PaCa-2, 2 h).
For `C=CC(=O)N1CCN(c2nc(=O)n(CC(C)(C)C)c3nc(-c4ccccc4F)c(Cl)cc23)C(CC#N)C1` (stereo not drawn) [Example 145-3, 2-[1-[6-Chloro-1-(2,2-dimethypropyl)-7-(2-fluorophenyl)-2-oxo-pyrido[2,3-d]pyrimidin-4-yl]-4-prop-2-enoyl-piperazin-2-yl]acetonitrile], the IC50 in assay [1] (Homo sapiens, A549, 2 h) came to 4.41 µM; in assay [2], 3.82 µM; in assay [3] (Homo sapiens, MIA PaCa-2, 2 h) it was 10 µM.
For `C=CC(=O)N1C[C@H](C)N(c2nc(=O)n(-c3c(C)ccnc3C(C)C)c3nc(-c4cc(C)ccc4F)c(Cl)cc23)C[C@H]1C` (atropisomer, axis not shown; (M)) [Example 92-60, (M)-6-Chloro-4-[(2S,5R)-2,5-dimethyl-4-prop-2-enoyl-piperazin-1-yl]-7-(2-fluoro-5-methyl-phenyl)-1-(2-isopropyl-4-methyl-3 pyridyl)pyrido [2,3-d]pyrimidin-2-one], the IC50 in assay [1] (Homo sapiens, A549, 2 h) is > 7.5 µM; in assay [2], 0.02 µM; in assay [3] (Homo sapiens, MIA PaCa-2, 2 h), 0.018 µM.
The like results for `C=CC(=O)N1C[C@H](C)N(c2nc(=O)n(-c3c(C)nc(C)nc3C(C)C)c3nc(-c4ccccc4F)c(Cl)cc23)C[C@H]1C` [Example 193, 4-((2S,5R)-4-Acryloyl-2,5-dimethylpiperazin-1-yl)-6-chloro-7-(2-fluorophenyl)-1-(4-isopropyl-2,6-dimethylpyrimidin-5-yl)pyrido[2,3-d]pyrimidin-2(1H)-one] were, in that order, > 7.5 µM, 0.056 µM and 0.055 µM.
Turning to `C=CC(=O)N1C[C@H](C)N(c2nc(=O)n(-c3c(C)ccnc3C(C)C)c3nc(-c4ccccc4NC(=O)C(F)F)c(Cl)cc23)C[C@H]1C` (atropisomer, axis not shown; (M)) [Example 129-11, (M)-N-[2-[6-Chloro-4-[(2S,5R)-2,5-dimethyl-4-prop-2-enoyl-piperazin-1-yl]-1-(2-isopropyl-4-methyl-3-pyridyl)-2-oxo-pyrido[2,3-d]pyrimidin-7-yl]phenyl]-2,2-difluoro-acetamide], the IC50 in assay [1] (Homo sapiens, A549, 2 h) was > 7.5 µM; in assay [2], 0.152 µM; in assay [3] (Homo sapiens, MIA PaCa-2, 2 h), 0.247 µM.
